# From US20230015647A1, “INHIBITORS OF HISTONE DEMETHYLASES (PFI-63 AND PFI-90) FOR THE TREATMENT OF CANCER AND FOR THE INHIBITION OF HISTONE DEMETHYLASE IN CELLS” (The United States of America,as represented by the …, priority 2019, published 2023)
# Entries after “also recorded” stand apart in the source; their conditions may differ.
# Assays:
# [1] = test system: truncated KDM3B catalytic domain; assay: CPMG relaxation editing NMR binding assay; settings: 100 μM
# Description: (§1) A WaterLOGSY assay and a Carr-Purcell Meiboom-Gill (CPMG) based assay were used to investigate protein-ligand binding affinity between PFI-90 and a truncated KDM3B catalytic domain.
# CPMG (Carr-Purcell-Meiboom-Gill) Relaxation Editing Proton NMR is another drug-discovery NMR experiment that may be used in conjunction with WaterLOGSY to orthogonally validate the presence of a reversible binding interaction of mild to high affinity from a small molecule to a label-free target. In contrast to WaterLOGSY, all peaks are phased above the X-axis. Instead, this experiment filters out the proportion of peak height that is contributed from the quantity of small molecule bound to a target of high molecular weight (e.g., a protein). Once the attenuation of peak height is equivalent to a 20% reduction, the compound is said to bind, with an increasing ratio of bound to unbound small molecules manifesting in increasing signal attenuation.
# [2] = test system: truncated KDM3B catalytic domain; assay: WaterLOGSY NMR binding assay; settings: 100 μM
# Description: as §1
# In traditional proton NMR experiments, a series of peaks are generated that represent the structure of a solitary small molecule, whereas the WaterLOGSY experiment examines the behavior of a small molecule's peaks in the presence of a potential target. This is achieved by observing differences in interaction between a small molecule interacting with water co-occupying a binding cleft on a target as compared to water dispersed freely in solution. The experiment then depicts the ratio of bound to unbound small molecule by phasing proton NMR spectra on the X-axis in opposing directions depending on the magnitude of that ratio (i.e., increasing ratios above 1 will phase positively, decreasing ratios below 1 will phase negatively).
# [3] = test system: PAX3-FOXO1 fusion transcription factor; assay: RH4 ALK-Luc luciferase reporter assay (PAX3-FOXO1 super enhancer activity); type: cell-based, human; settings: RH4 ALK-Luc reporter
# Description: The screen was performed using two derivatives of RH4 FP-RMS cells: • (1) “ALK-Luc cells”—RH4 cells expressing a pGreenFire green fluorescent protein (GFP)-luciferase reporter (SEQ ID NO: 1) controlled by the PAX3-FOXO1-dependent intronic ALK super enhancer (for reporting on PAX3-FOXO1 activity) (FIGS. 1 and 2); and • (2) “CMV-Luc cells”—control RH4 cells in which the reporter is transcribed from a constitutively active cytomegalovirus (CMV) promoter. An Example of visualization via the ALK-Luc reporter is depicted in FIG. 3.
# The cells were enriched for reporter expression levels and used for assay development. A high throughput screening assay was developed after optimization of cell seeding density, length of incubation of cells prior to and post treatment with test compounds, and effect of passaging among other factors. The screen was designed to identify compounds that suppressed PAX3-FOXO1 activity without disrupting viability (at a short time points) or general transcription. The assay simultaneously monitors the function of the PAX3-FOXO1 super enhancer (also referred to as “ALK super enhancer”), general transcriptional activity as well as cell viability.
# The visual summary of the screening strategy is illustrated in FIG. 4. ALK-Luc cells were seeded in both white-walled and white-bottomed 384-well plates (Perkin Elmer, Cat #6007658) for luciferase assays and in clear 384-well plates (Perkin Elmer, Cat #6007688) for viability assay (XTT reduction) by transferring 27 μL of cell suspensions (seeding 3000 cells per well) into each well. The plates were then transferred into an incubator for 18-20 h. The CMV-Luc cells were similarly seeded into white plates and incubated.
# A pure compound library of 62,643 compounds consisting of synthetic and natural products described previously (Grohar et al., J Natl. Cancer Inst., 103: 962-978 (2011)) was then used in a high throughput screening campaign to identify inhibitors of PAX3-FOXO1. Stock DMSO Solutions of these compounds were used to prepare 100 μM solutions in growth medium in 384-well plates also containing 16 wells each of a positive control (Actinomycin D, Sigma, Cat #A1410) and negative control (DMSO). Screening compounds along with the positive and negative controls were added to assay plates by transferring 3 μL of the prepared 100 μM dilutions using an automated liquid handler (Agilent, Bravo). Treated plates were incubated for 24 h. At the end of this period, treated plates were allowed to equilibrate to room temperature for 30 minutes. SteadyLite Plus luciferase assay reagent powder (PerkinElmer, Cat #6066759) was reconstituted in its buffer in parallel and was also allowed to equilibrate to room temperature.
# After transferring 30 μL of the luciferase assay reagent using a liquid handler, plates were further incubated at room temperature for 10 minutes. Finally, luminescence measurements were carried out using a multi-label microplate reader (BMG, Pherastar FSX) set in luminescence mode. Cell viability was assessed by adding XTT reagent (10 μL per well) in clear plates containing treated ALK-Luc cells. XTT treated plates were read using a plate reader in absorbance mode at 450 nm (PerkinElmer, Envision) after further incubation for 1 hour to allow cells to metabolize XTT to a colored formazan product. Luminescence and XTT absorbance values were normalized to the average of the negative controls on each plate and were calculated as a percentage of these controls. Performance of the screening assay was routinely monitored via calculation of Z-factor (Zhang et al., J. Biomol. Screen., 4: 67-73 (1999)) with Z′ for all plates found to be >0.7.
# RH4 ALK-Luc and RH4 CMV-Luc cells were seeded into separate white-walled and bottomed 384-well plates and were incubated and treated with screen hits and epigenome compounds. The highest test concentration of these compounds (10-fold) were prepared from DMSO stock solutions via dilution in medium. […]
SMILES,binding (CPMG) [1],binding (WaterLOGSY) [2],"Avg Absorbance @ 1 μM, ALK-Luc [3]","Avg Absorbance @ 10 μM, ALK-Luc [3]"
"O=C(O)CCC(=O)C(=O)O [Compound 2-OG, 2-oxoglutaric acid, reference compound]",did not bind; also recorded: does not bind,did not bind; also recorded: does not bind,,
O=C(NNC(=O)c1ccccn1)c1ccccc1 [PFI-65],,,103.5,109.2
NNC(=O)c1cccc(C(=O)NN)n1 [PFI-66],,,91.6,91.3
Cc1cccc(C(=O)NNC(=O)c2cccc(C)c2)c1 [PFI-67],,,94.6,112.8
CC(=O)NNC(=O)c1ccccn1 [PFI-68],,,95.0,98.0
CCC(=O)NNC(=O)c1ccccn1 [PFI-69],,,104.3,94.4
O=CNNC(=O)c1ccccn1 [PFI-70],,,99.7,93.3
NNC(=O)c1ccc(C(=O)NN)nc1 [PFI-71],,,100.1,108.6
O=C(NNC(=O)c1cccc(C(=O)NNC(=O)c2ccc(Cl)c(Cl)c2)n1)c1ccc(Cl)c(Cl)c1 [PFI-72],,,,91.1
Cc1cccc(C(=O)NNC(=O)c2ccccc2)c1 [PFI-73],,,98.3,122.8
CCCC(=O)NNC(=O)c1ccccn1 [PFI-74],,,102.4,94.7
Cc1nc(C)c(C(=O)NNC(=O)c2ccccc2)cc1C(=O)NNC(=O)c1ccccc1 [PFI-75],,,100.2,110.5
CC(=O)NNC(=O)c1cnccn1 [PFI-76],,,105.6,100.2
O=CNNC(=O)c1cnccn1 [PFI-77],,,95.8,96.5
Cc1nc(C)c(C(=O)NN)cc1C(=O)NN [PFI-78],,,100.3,95.3
NNC(=O)c1ccc(C(=O)NN)o1 [PFI-79],,,97.0,97.6
CC(=O)NNC(=O)c1ccc2ccccc2n1 [PFI-80],,,90.1,96.6
CCC(CC)C(=O)NNC(=O)c1ccccn1 [PFI-81],,,97.7,89.1
O=C(NNC(=O)c1ccccn1)c1ccccn1 [PFI-82],,,112.4,107.1
O=C(Cc1ccc(Cl)cc1)NNC(=O)c1ccccn1 [PFI-83],,,97.8,32.2
Cc1cc(C)cc(OCC(=O)NNC(=O)c2ccccn2)c1 [PFI-84],,,99.4,56.5
CS(=O)(=O)NCCc1ccc(C(=O)NNC(=O)c2ccccn2)cc1 [PFI-85],,,99.7,100.2
Cc1cc(C)cc(C(=O)NNC(=O)c2ccc(O)cc2)c1 [PFI-86],,,97.7,84.1
COCc1cccc(C(=O)NNC(=O)c2ccccn2)c1 [PFI-87],,,115.5,120.4
Cc1cccc(C(=O)NNC(=O)c2ccccc2)c1 [PFI-88],,,91.6,121.4
CC(C)CC(=O)NNC(=O)c1ccco1 [PFI-89],,,95.1,92.5
